{"source": "patent US4613607A", "about": "“Medicaments based on derivatives of 1-(4-quinolyl)-2-(4-piperidyl)-ethanol or 1-(4-quinolyl)-3-(4-piperidyl)-propanol” (Pharmuka Laboratoires, priority 1980, dated 1986)", "key": {"[1]": {"system": "ventricular arhythmia caused by the aconitine", "test": "Aconitine test on the rat (delay of ventricular arhythmia caused by perfused aconitine)", "format": "in vivo", "conditions": "iv, read-out: Antiarhythmic activity, aconitine test on the rat, ED50", "description": "The principle of the method rests on the induction time of the ventricular arhythmia caused by the aconitine which is slowly fed by perfusion into rats. An antiarhythmic substance retards the appearance of the arhythmia and the delay is proportional to the activity of the substance.\nGroups of 5 male rats were used. An individual anesthesia was effected (10% urethane: 1 g/kg/ip) in order to permit a catheterization of the vein of the penis. The electrocardiogram was recorded. At time T=0 the substance studied was injected in the form of an aqueous solution, at the rate of 2.5 ml of solution per kg in 30 seconds. At time T=60 seconds, say 30 seconds after the end of the injection, the aconitine was perfused at the rate of 20 μg per minute up to the appearance of supraventricular extra systoles. The time of perfusion of the aconitine was noted.\nThe results are expressed by an ED50, which is the dose of product, in mg/kg, increasing by 50% the time of perfusion of the aconitine in comparison with the perfusion time of aconitine for the control animals."}, "[2]": {"system": "fibrillations caused by an inhalation of chloroform", "test": "Chloroform test on the mouse (protection against fibrillations caused by inhalation of chloroform)", "format": "in vivo", "conditions": "ip, 20 min, read-out: Antiarhythmic activity, chloroform test on the mouse, AD50", "description": "The product to be tested was administered intraperitoneally 20 minutes before chloroformic intoxication and the possible protection against the arhythmia was shown by recording of the electrocardiogram, which was effected from the appearance of the apnoea. The activity of the products is expressed by an AD50 (dose of product in mg/kg which protects 50% of the animals)."}, "[3]": {"test": "Acute toxicity to mice, intravenous", "conditions": "in vivo, male mouse DC1, i.v., 3 days observation", "from_the_text": "Toxicological properties of the compounds of formula (I): […]\nThe acute toxicities of the compounds of formula (I) (see results in the above Table) have been determined on the male mouse DC1 (Charles River), by the intravenous method. The LD50 have been calculated, after 3 days observation, by the cumulative method of J. J. Reed and H. Muench (Amer. J. Hyg., 27, 493, 1938)."}, "[4]": {"conditions": "dose which protects 50% of the animals, intraperitoneal, 20 minutes before chloroform"}}, "note": "Counter-ions that a name gives are not always drawn. Like-named read-outs stand apart in the source and are kept apart here.", "data": [{"smiles": "C=C[C@H]1CNCC[C@H]1CCC(O)c1ccnc2ccc(OC)cc12", "note": "(mixture of isomers) [Example 5, Mixture of 3-[3(R)-ETHENYL 4(R)-PIPERIDYL]-1-(6-METHOXY-4-QUINOLYL)-1-(R)-PROPANOL and 3-[3(R)-ETHENYL 4(R)-PIPERIDYL]-1-(6-METHOXY-4-QUINOLYL)-1(S)-PROPANOL]", "values": [{"measurement": "ED50", "setting": "[1]", "value": 0.44, "unit": "mg/kg"}, {"measurement": "ED50", "setting": "[2]", "value": 3, "unit": "mg/kg"}, {"measurement": "LD50 at 72 h", "setting": "[3]", "value": 21.5, "unit": "mg/kg"}]}, {"smiles": "OC(CCC1CCNCC1)c1cc(-c2ccccc2)nc2ccccc12", "note": "(racemic) [Example 4, 1-(2-PHENYL-4-QUINOLYL)-3-(4-PIPERIDYL)-1-PROPANOL]", "values": [{"measurement": "ED50", "setting": "[1]", "value": 1.22, "unit": "mg/kg"}, {"measurement": "ED50", "setting": "[2]", "value": 2.5, "unit": "mg/kg"}, {"measurement": "LD50 at 72 h", "setting": "[3]", "value": 21, "unit": "mg/kg"}]}, {"smiles": "CC(C)(C)c1cc(C(O)CCC2CCNCC2)c2ccccc2n1", "note": "(racemic) [Example 12, 1-[2-(1,1-DIMETHYL-ETHYL)-4-QUINOLYL]-3-(4-PIPERIDYL)-1-PROPANOL]", "values": [{"measurement": "ED50", "setting": "[1]", "value": 0.8, "unit": "mg/kg"}, {"measurement": "LD50 at 72 h", "setting": "[3]", "value": 26, "unit": "mg/kg"}]}, {"smiles": "CC[C@H]1CNCC[C@H]1CC[C@@H](O)c1ccnc2ccc(OC)cc12", "note": "[8 (1(R)-propanol isomer)]", "values": [{"measurement": "ED50", "setting": "[1]", "value": 0.65, "unit": "mg/kg"}, {"measurement": "ED50", "setting": "[2]; [4]", "value": 2.5, "unit": "mg/kg"}, {"measurement": "LD50 at 72 h", "setting": "[3]", "value": 29, "unit": "mg/kg"}]}, {"smiles": "CC[C@H]1CNCC[C@H]1CC[C@H](O)c1ccnc2ccc(OC)cc12", "note": "[8 (1(S)-propanol isomer)]", "values": [{"measurement": "ED50", "setting": "[1]", "value": 0.58, "unit": "mg/kg"}, {"measurement": "ED50", "setting": "[2]; [4]", "value": 2.5, "unit": "mg/kg"}, {"measurement": "LD50 at 72 h", "setting": "[3]", "value": 17, "unit": "mg/kg"}]}, {"smiles": "C=C[C@H]1CN(C)CC[C@H]1CC[C@H](O)c1ccnc2ccc(OC)cc12", "note": "[9 (3(R)-ethenyl isomer)]", "values": [{"measurement": "ED50", "setting": "[1]", "value": 1, "unit": "mg/kg"}, {"measurement": "ED50", "setting": "[2]; [4]", "value": 5, "unit": "mg/kg"}, {"measurement": "LD50 at 72 h", "setting": "[3]", "value": 19, "unit": "mg/kg"}]}, {"smiles": "C=C[C@@H]1CN(C)CC[C@H]1CC[C@H](O)c1ccnc2ccc(OC)cc12", "note": "[9 (3(S)-ethenyl isomer)]", "values": [{"measurement": "ED50", "setting": "[1]", "value": 1.4, "unit": "mg/kg"}, {"measurement": "ED50", "setting": "[2]; [4]", "value": "> 5", "unit": "mg/kg"}, {"measurement": "LD50 at 72 h", "setting": "[3]", "value": 33, "unit": "mg/kg"}]}, {"smiles": "C=C[C@H]1CNCC[C@H]1CC[C@H](O)c1ccnc2ccc(OC)cc12", "note": "[Example 6, 3-[3(R)-ETHENYL 4(R)-PIPERIDYL]-1-(6-METHOXY-4-QUINOLYL)-1(S)-PROPANOL]", "values": [{"measurement": "ED50", "setting": "[1]", "value": 0.43, "unit": "mg/kg"}, {"measurement": "ED50", "setting": "[2]", "value": 3, "unit": "mg/kg"}, {"measurement": "LD50 at 72 h", "setting": "[3]", "value": 20.3, "unit": "mg/kg"}]}, {"smiles": "C=C[C@H]1CNCC[C@H]1CC[C@@H](O)c1ccnc2ccc(OC)cc12", "note": "[Example 7, 3-[3(R)-ETHENYL 4(R)-PIPERIDYL]-1-(6-METHOXY-4-QUINOLYL)-1(R)-PROPANOL]", "values": [{"measurement": "ED50", "setting": "[1]", "value": 0.45, "unit": "mg/kg"}, {"measurement": "ED50", "setting": "[2]", "value": 3, "unit": "mg/kg"}, {"measurement": "LD50 at 72 h", "setting": "[3]", "value": 33, "unit": "mg/kg"}]}, {"smiles": "C=C[C@H]1C[N@@]2CC[C@H]1C[C@@H]2[C@@H](O)c1ccnc2ccc(OC)cc12", "note": "[Quinidine sulfate, reference compound]", "values": [{"measurement": "ED50", "setting": "[1]", "value": 7.5, "unit": "mg/kg"}, {"measurement": "ED50", "setting": "[2]; [4]", "value": 18, "unit": "mg/kg"}, {"measurement": "LD50 at 72 h", "setting": "[3]", "value": 60, "unit": "mg/kg"}]}]}
